In ChEMBL document CHEMBL4387792, “Cytotoxic and Antibacterial Cervinomycins B1-4 from a Streptomyces Species” (J Nat Prod, 2019):
Values after ≈ are worked out from the molar mass of the structure shown. Active and inactive are the calls of the source. No cut-off for these calls is given here.

Assays:
Staphylococcus aureus [1] = experiment: Antibacterial activity against methicillin-sensitive Staphylococcus aureus 15 assessed as prevention of visible bacterial growth incubated for 18 hrs by broth dilution method; format: functional, organism-based
Escherichia coli [2] = experiment: Antibacterial activity against extended-spectrum beta-lactamase non-producing Escherichia coli ATCC 25922 assessed as prevention of visible bacterial growth incubated for 18 hrs by broth dilution method; format: functional, organism-based
SW1990 = experiment: Cytotoxicity against human SW1990 cells incubated for 72 hrs by MTT assay; format: functional, cell-based; conditions: SW1990, 72 h
PC-3 = experiment: Cytotoxicity against human PC3 cells incubated for 72 hrs by MTT assay; format: functional, cell-based; conditions: PC-3, 72 h
NCI-H1299 = experiment: Cytotoxicity against human NCI-H1299 cells incubated for 72 hrs by MTT assay; format: functional, cell-based; conditions: NCI-H1299, 72 h
Staphylococcus aureus [3] = experiment: Antibacterial activity against methicillin-resistant Staphylococcus aureus ATCC 33591 assessed as prevention of visible bacterial growth incubated for 18 hrs by broth dilution method; format: functional; conditions: ATCC 33591, 18 h
Staphylococcus aureus [4] = experiment: Antibacterial activity against methicillin-resistant Staphylococcus aureus 16-30 assessed as prevention of visible bacterial growth incubated for 18 hrs by broth dilution method; format: functional; conditions: 16-30, 18 h
Enterococcus faecalis [5] = experiment: Antibacterial activity against vancomycin-resistant Enterococcus faecalis ATCC 51299 assessed as prevention of visible bacterial growth incubated for 18 hrs by broth dilution method; format: functional; conditions: ATCC 51299, 18 h
Enterococcus faecalis [6] = experiment: Antibacterial activity against vancomycin-resistant Enterococcus faecalis ATCC 51575 assessed as prevention of visible bacterial growth incubated for 18 hrs by broth dilution method; format: functional; conditions: ATCC 51575, 18 h
Enterococcus faecium [7] = experiment: Antibacterial activity against vancomycin-resistant Enterococcus faecium ATCC 700221 assessed as prevention of visible bacterial growth incubated for 18 hrs by broth dilution method; format: functional; conditions: ATCC 700221, 18 h
Enterococcus faecium [8] = experiment: Antibacterial activity against vancomycin-resistant Enterococcus faecium 12-1 assessed as prevention of visible bacterial growth incubated for 18 hrs by broth dilution method; format: functional; conditions: 12-1, 18 h
[9] = test system: Staphylococcus epidermidis; experiment: Antibacterial activity against methicillin-sensitive Staphylococcus epidermidis ATCC 12228 assessed as prevention of visible bacterial growth incubated for 18 hrs by broth dilution method; format: functional, organism-based
[10] = test system: Staphylococcus epidermidis; experiment: Antibacterial activity against methicillin-sensitive Staphylococcus epidermidis 16-4 assessed as prevention of visible bacterial growth incubated for 18 hrs by broth dilution method; format: functional, organism-based
[11] = test system: Staphylococcus epidermidis; experiment: Antibacterial activity against methicillin-resistant Staphylococcus epidermidis 16-5 assessed as prevention of visible bacterial growth incubated for 18 hrs by broth dilution method; format: functional, organism-based
Staphylococcus aureus [12] = experiment: Antibacterial activity against methicillin-sensitive Staphylococcus aureus ATCC 29213 assessed as prevention of visible bacterial growth incubated for 18 hrs by broth dilution method; format: functional, organism-based
Staphylococcus aureus [13] = experiment: Antibacterial activity against methicillin-sensitive Staphylococcus aureus 16-1 assessed as prevention of visible bacterial growth incubated for 18 hrs by broth dilution method; format: functional, organism-based
Enterococcus faecalis [14] = experiment: Antibacterial activity against vancomycin-sensitive Enterococcus faecalis ATCC 29212 assessed as prevention of visible bacterial growth incubated for 18 hrs by broth dilution method; format: functional, organism-based
Enterococcus faecalis [15] = experiment: Antibacterial activity against vancomycin-sensitive Enterococcus faecalis 16-6 assessed as prevention of visible bacterial growth incubated for 18 hrs by broth dilution method; format: functional, organism-based
Enterococcus faecium [16] = experiment: Antibacterial activity against vancomycin-sensitive Enterococcus faecium 16-5 assessed as prevention of visible bacterial growth incubated for 18 hrs by broth dilution method; format: functional, organism-based
Escherichia coli [17] = experiment: Antibacterial activity against extended-spectrum beta-lactamase producing Escherichia coli ATCC 35218 assessed as prevention of visible bacterial growth incubated for 18 hrs by broth dilution method; format: functional, organism-based
Klebsiella pneumoniae [18] = experiment: Antibacterial activity against extended-spectrum beta-lactamase producing Klebsiella pneumoniae 700603 assessed as prevention of visible bacterial growth incubated for 18 hrs by broth dilution method; format: functional, organism-based
Klebsiella pneumoniae [19] = experiment: Antibacterial activity against extended-spectrum beta-lactamase non-producing Klebsiella pneumoniae 16-2 assessed as prevention of visible bacterial growth incubated for 18 hrs by broth dilution method; format: functional, organism-based
Pseudomonas aeruginosa = experiment: Antibacterial activity against Pseudomonas aeruginosa ATCC 27853 assessed as prevention of visible bacterial growth incubated for 18 hrs by broth dilution method; format: functional, organism-based
[20] = test system: Acinetobacter calcoaceticus; experiment: Antibacterial activity against Acinetobacter calcoaceticus ATCC 19606 assessed as prevention of visible bacterial growth incubated for 18 hrs by broth dilution method; format: functional, organism-based
Enterobacter cloacae = experiment: Antibacterial activity against Enterobacter cloacae ATCC 43560 assessed as prevention of visible bacterial growth incubated for 18 hrs by broth dilution method; format: functional, organism-based
Shigella flexneri = experiment: Antibacterial activity against Shigella flexneri ATCC 12022 assessed as prevention of visible bacterial growth incubated for 18 hrs by broth dilution method; format: functional, organism-based

Structure (SMILES)	Activity (Staphylococcus aureus [1])	Activity (Escherichia coli [2])	IC50 (SW1990) [nM]	IC50 (PC-3) [nM]	IC50 (NCI-H1299) [nM]	MIC (Staphylococcus aureus [3]) [µg/mL]	MIC (Staphylococcus aureus [4]) [µg/mL]	MIC (Enterococcus faecalis [5]) [µg/mL]	MIC (Enterococcus faecalis [6]) [µg/mL]	MIC (Enterococcus faecium [7]) [µg/mL]	MIC (Enterococcus faecium [8]) [µg/mL]	Activity [9]	Activity [10]	Activity [11]	Activity (Staphylococcus aureus [12])	Activity (Staphylococcus aureus [13])	Activity (Enterococcus faecalis [14])	Activity (Enterococcus faecalis [15])	Activity (Enterococcus faecium [16])	Activity (Escherichia coli [17])	other results
COc1cc2oc3c(O)c4c(c(O)c3c(=O)c2cc1OC)-c1c(cc2c(c1O)C(=O)N1CCO[C@]1(C)C2)CC4	inactive	inactive	2.2	2.2	0.1	0.06 (≈ 0.113 µM)	0.06 (≈ 0.113 µM)	0.06 (≈ 0.113 µM)	0.12 (≈ 0.226 µM)	0.12 (≈ 0.226 µM)	0.03 (≈ 0.0564 µM)	inactive	inactive	inactive	inactive	inactive	inactive	inactive	inactive	inactive	Activity (Klebsiella pneumoniae [18]): inactive; Activity (Klebsiella pneumoniae [19]): inactive; Activity (Pseudomonas aeruginosa): inactive; Activity [20]: inactive; Activity (Enterobacter cloacae): inactive; Activity (Shigella flexneri): inactive
COc1cc2oc3c(c(=O)c2cc1OC)C(=O)c1c(ccc2cc4c(c(O)c12)C(=O)N1CCO[C@]1(C)C4)C3=O	–	–	704	1310	252	0.5 (≈ 0.948 µM)	0.5 (≈ 0.948 µM)	0.12 (≈ 0.227 µM)	0.12 (≈ 0.227 µM)	1 (≈ 1.9 µM)	1 (≈ 1.9 µM)	–	–	–	–	–	–	–	–	–	–
COc1cc2oc3c(c(=O)c2cc1OC)C(=O)C1=C(CCc2cc4c(c(O)c21)C(=O)N1CCO[C@]1(C)C4)C3=O	inactive	inactive	5.4	3.5	2	0.06 (≈ 0.113 µM)	0.12 (≈ 0.227 µM)	0.12 (≈ 0.227 µM)	0.12 (≈ 0.227 µM)	0.06 (≈ 0.113 µM)	0.12 (≈ 0.227 µM)	inactive	inactive	inactive	inactive	inactive	inactive	inactive	inactive	inactive	Activity (Klebsiella pneumoniae [18]): inactive; Activity (Klebsiella pneumoniae [19]): inactive; Activity (Pseudomonas aeruginosa): inactive; Activity [20]: inactive; Activity (Enterobacter cloacae): inactive; Activity (Shigella flexneri): inactive
COc1cc2oc3c(c(=O)c2cc1O)C(=O)C1=C(CCc2cc4c(c(O)c21)C(=O)N1CCO[C@]1(C)C4)C3=O	inactive	inactive	20.9	34.3	107	0.25 (≈ 0.485 µM)	0.12 (≈ 0.233 µM)	0.25 (≈ 0.485 µM)	0.5 (≈ 0.97 µM)	0.5 (≈ 0.97 µM)	0.25 (≈ 0.485 µM)	inactive	inactive	inactive	inactive	inactive	inactive	inactive	inactive	inactive	Activity (Klebsiella pneumoniae [18]): inactive; Activity (Klebsiella pneumoniae [19]): inactive; Activity (Pseudomonas aeruginosa): inactive; Activity [20]: inactive; Activity (Enterobacter cloacae): inactive; Activity (Shigella flexneri): inactive
COc1cc2oc3c(O)c4c(c(O)c3c(=O)c2cc1O)-c1c(cc2c(c1O)C(=O)N1CCO[C@]1(C)C2)CC4	inactive	inactive	0.8	4.4	49.1	0.016 (≈ 0.0309 µM)	0.008 (≈ 0.0155 µM)	0.016 (≈ 0.0309 µM)	0.016 (≈ 0.0309 µM)	0.03 (≈ 0.058 µM)	0.03 (≈ 0.058 µM)	inactive	inactive	inactive	inactive	inactive	inactive	inactive	inactive	inactive	Activity (Klebsiella pneumoniae [18]): inactive; Activity (Klebsiella pneumoniae [19]): inactive; Activity (Pseudomonas aeruginosa): inactive; Activity [20]: inactive; Activity (Enterobacter cloacae): inactive; Activity (Shigella flexneri): inactive
C[C@H]1COc2c(N3CCN(C)CC3)c(F)cc3c(=O)c(C(=O)O)cn1c23.C[C@H]1COc2c(N3CCN(C)CC3)c(F)cc3c(=O)c(C(=O)O)cn1c23.O [LEVOFLOXACIN]	–	–	–	–	–	0.12	32	1	2	128	128	–	–	–	–	–	–	–	–	–	–
